The text below walks through data of ChEMBL document CHEMBL1127488, “Interaction of tetrahydrostilbazoles with monoamine oxidase A and B” (J Med Chem, 1994).

The assay concerns the target T1, Amine oxidase [flavin-containing] A (Homo sapiens, UniProt P21397).
T1 sequence (P21397 whole entry): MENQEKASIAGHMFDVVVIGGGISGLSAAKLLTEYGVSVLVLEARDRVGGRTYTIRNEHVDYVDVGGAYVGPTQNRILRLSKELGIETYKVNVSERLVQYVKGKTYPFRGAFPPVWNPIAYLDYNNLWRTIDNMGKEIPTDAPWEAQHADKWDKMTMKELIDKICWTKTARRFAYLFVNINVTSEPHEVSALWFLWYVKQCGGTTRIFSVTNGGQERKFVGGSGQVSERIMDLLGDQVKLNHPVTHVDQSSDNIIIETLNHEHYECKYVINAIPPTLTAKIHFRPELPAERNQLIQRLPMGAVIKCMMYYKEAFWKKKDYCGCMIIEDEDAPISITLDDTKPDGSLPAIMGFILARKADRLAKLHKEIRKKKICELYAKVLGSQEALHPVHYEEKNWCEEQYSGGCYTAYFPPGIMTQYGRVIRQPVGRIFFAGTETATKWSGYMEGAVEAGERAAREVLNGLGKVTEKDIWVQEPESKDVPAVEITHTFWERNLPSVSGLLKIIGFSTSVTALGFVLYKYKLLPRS
In words: Compound was tested for the inhibition of monoamine oxidase A (MAO A) from human liver.

pKi: −log10 of the molar value.

What is called pKi is −log10 of the Ki, conventionally taken in molar units. The low end stands for a large Ki, the high end for a small Ki.

Turning to `C[C@@H]1NC(=O)[C@H](NC(=O)[C@@H](N)Cc2ccc(O)cc2)C(C)(C)SSC(C)(C)[C@@H](C(O)O)NC(=O)[C@H](Cc2ccccc2)NC1=O`, the negative logarithm of the Ki (pKi) was 5.70.
